Here are results for 1 compound from patent US10420831B2, “Inactivation of viruses by delipidation” (priority 2016, dated 2019).

Like-named read-outs stand apart in the source and are kept apart here.

Experiment [1] has as its system human influenza virus H1N1 A/WSN/33 strain. In kind it is cell-based.
Experiment [2] shares this test system. In words: Hemagglutination (HA) activity of treated IFV with chicken red blood cells. How it is done: Hemagglutination (HA) activity is determined as follows. Freshly isolated chicken blood is washed three times with PBS, and the red blood cells (RBC) are resuspended in PBS at a concentration of 1%. Virus dilutions (50 μL) are made in PBS and mixed with 50 μL of the RBC suspension. The mixture is added to individual wells in a 96-well plate and the RBC are allowed to settle for 45 minutes. The wells are judged to be HA negative (i.e. no agglutination of RBC) if a dot or pellet of RBC is present, and a well is judged to be positive if a smooth suspension of RBC is present.
In addition to MBCD, another lipid solvent, diisopropyl ether (DIPE) is used to delipidate IFV. […] After a brief centrifugation at 2,000×g for 3 minutes, visible solvent is removed, and the aqueous materials are left to dry in a fume hood for 20 minutes. The samples are then centrifuged at 200,000×g for 30 minutes to recover virus particles.

Take `CC(C)OC(C)C` [DIPE, diisopropyl ether]: the “IFV infectivity reduced, compared to the mock-treatment” value in experiment [1] (12% DIPE, 37° C., 30 minutes, […]) is 32 fold. Also, the PFU/mL in experiment [1] (IFV, 2% DIPE, 37° C., 30 minutes) is recorded as 1.2 × 10^8 PFU/mL; in experiment [1] (IFV, 4% DIPE, 37° C., 30 minutes), 1.4 × 10^8 PFU/mL; in experiment [1] (IFV, 8% DIPE, 37° C., 30 minutes) it was 9.0 × 10^7 PFU/mL; in experiment [1] (IFV, 10% DIPE, end-over-end rotation at 37° C. for 30 minutes), 1.0 × 10^5 PFU/mL; in experiment [1] (IFV, 12% DIPE, 37° C., 30 minutes), 2.8 × 10^7 PFU/mL. Besides, the “decrease in infectivity in vitro” value in experiment [1] (IFV, 10% DIPE, 30 minute treatment) is given as roughly 120 fold. Also, the HA units in experiment [2] (2% DIPE, 37° C., 30 minutes) is on record as 32 HA units; in experiment [2] (4% DIPE, 37° C., 30 minutes), 32 HA units; in experiment [2] (8% DIPE, 37° C., 30 minutes), 32 HA units; in experiment [2] (10% DIPE, end-over-end rotation at 37° C. for 30 minutes), 16 HA units; in experiment [2] (12% DIPE, 37° C., 30 minutes) it was 16 HA units. Also, the “effect on HA activity (in words)” value in experiment [2] (10% DIPE, 30 minutes) is “measurably reduced”.
